According to patent US20230000774A1, “METHODS AND COMPOSITIONS PRODUCED THEREBY” (Albumedix Limited, priority 2019, published 2023):
Converted amounts (≈) assume the structure as drawn. Read-outs that look alike come from different tables or passages of the source.

How the values were obtained:
[1] = Dissolution of curcumin in water and after spray drying with rHA; assay type: physicochemical; details: unformulated
[2] = cited from earlier work; for Water Solubility: obtained from DrugBank, rimiducid value provided by Bellicum Pharmaceuticals (estimated); for Solubility in water (literature): unformulated API
[3] = obtained from DrugBank; total charge at pH 7.4; cited from earlier work
physchem = details: organic solvent or mixture, thermodynamic from solid
Protocol: The solubility of nine poorly soluble APIs in ethanol was investigated; Acyclovir, Aripiprazole, Bifonazole, Etravirine, Ezetimibe, Glibenclamide. […] For each API, approximately 20 mg was weighed into a scintillation vial. 3 mL of ethanol was added to each vial. Samples were vortexed until completely dissolved. If after 2 mins the sample was not dissolved, a further 3 mL of ethanol was added, and the sample was vortexed again. After another 2 mins, if the sample was still not dissolved, the API in question was classed as insoluble.
To quickly assess the APIs applicability to this method, the solubility of each API in ethanol was tested.

[4] = Solubility of APIs in ethanol water mixtures; assay type: physicochemical; details: ethanolic solution added to 50:50 EtOH:H2O
Protocol: APIs were dissolved in ethanol at the desired concentration (Tables 16 and 17). The required volume of this solution was added to a 50:50 solution of ethanol:HPLC grade water with stirring (Table 17).
To prepare the spray drying feed solution the API should preferably be soluble in 40:60 (v/v) ethanol/water mixtures. Any API that precipitated on addition of the ethanolic solution (from the previous section) to a 50:50 solution of EtOH:H2O was eliminated from the study.

[5] = Solubility of APIs in D5W solution; assay type: physicochemical; details: saline or isotonic, thermodynamic from solid
Protocol: The solution was sampled after centrifugation (13.5 k rpm for 5 minutes) and the solubility of the APIs was determined by HPLC analysis of the saturated solution.
Analysis was performed on an Agilent 1200 series HPLC employing a Waters, Xbridge Peptide BEH C18 column (150×4.6 mm i.d., 3.5 μm). […] Bifonazole was analysed using a 1 mL/min flow rate of 65:35 HPLC methanol:ammonium acetate (5 g/L, pH 2) with UV detection at 252 nm.

[6] = Drug solubility testing of AP1903 in ethanol and methanol; assay type: physicochemical
Protocol: Drug solubility testing was undertaken to ascertain the highest concentration of drug solution that could be used for the preparation of the feed solution. […] Both were tested and found to perform similarly, with ˜40 mg of AP1903 dissolving into 1 mLl of solvent.

DMSO solubility testing = assay type: physicochemical
Protocol: 1 mL of DMSO was added to a scintillation vial containing approximately 20 mg of Ezetimibe. The sample readily dissolved with gentle mixing.
A solution preparation method that utilised an alternative solvent was investigated. The alternative solvent needed to be similar to ethanol in its ability to dissolve the APIs whilst being miscible with water. Dimethyl sulfoxide (DMSO) was chosen as a promising candidate. Ezetimibe was chosen as a suitable API owing to its favourable COSHH assessment combined with the knowledge of DMSO as a transport agent. The solubility of Ezetimibe in DSMO was assessed by dissolving approx. 20 mg of API in 1 mL of solvent. […] The next step was to assess the API solubility in a mixture of DMSO and water.

[7] = D5W solution, unformulated API, saturated solution, read-out: Solubility in D5W solution

| Structure (SMILES) | Water Solubility [2] | Physiological Charge [3] | solubility (physchem; Soluble (>[…]) in EtOH?) [µg/mL] | Soluble in EtOH/H2O mixture [4] | further results |
| --- | --- | --- | --- | --- | --- |
| COc1cc(/C=C/C(=O)CC(=O)/C=C/c2ccc(O)c(OC)c2)ccc1O [Curcumin] | – | – | – | – | Water Solubility [1]: poorly water soluble |
| C=CC[C@@H]1/C=C(\C)C[C@H](C)C[C@H](OC)[C@H]2O[C@@](O)(C(=O)C(=O)N3CCCC[C@H]3C(=O)O[C@H](/C(C)=C/[C@@H]3CC[C@@H](O)[C@H](OC)C3)[C@H](C)[C@@H](O)CC1=O)[C@H](C)C[C@@H]2OC [Tacrolimus] | 4.02 µg/mL | 0 | – | – | – |
| C#C[C@]1(O)CC[C@H]2[C@@H]3CCC4=Cc5oncc5C[C@]4(C)[C@H]3CC[C@@]21C [Danazol] | – | 0 | – | – | – |
| c1ccc(-c2ccc(C(c3ccccc3)n3ccnc3)cc2)cc1 (stereo not drawn) [Bifonazole] | 2.45 µg/mL | 0 | > 1200 | Yes | solubility at 2 min [5]: 3.5 µg/mL (≈ 11.3 µM); Solubility in water (literature) [2]: 2.5 µg/mL (≈ 8.05 µM) |
| CC[C@H](C(=O)N1CCCC[C@H]1C(=O)O[C@H](CCc1ccc(OC)c(OC)c1)c1cccc(OCC(=O)NCCNC(=O)COc2cccc([C@@H](CCc3ccc(OC)c(OC)c3)OC(=O)[C@@H]3CCCCN3C(=O)[C@@H](CC)c3cc(OC)c(OC)c(OC)c3)c2)c1)c1cc(OC)c(OC)c(OC)c1 [AP1903, 1,2-Ethanediylbis[imino(2-oxo-2,1-ethanediyl)oxy-3,1-phenylene(1R)-3-(3,4-dimethoxyphen-yl)-1,1-propanediyl] (2S,2'S)bis{1-[(2S)-2-(3,4,5-trimethoxyphenyl)butanoyl]-2-piperidine-carboxylate}] | approximately 0.000001 mg/mL | 0 | – | – | amount of AP1903 dissolving in ethanol ([6]; dissolving into 1 mL of ethanol): ~40 mg; amount of AP1903 dissolving in methanol ([6]; dissolving into 1 mL of methanol): ~40 mg; Water Solubility ([2]; listed as Rimiducid (AP1903)): 0.001 µg/mL; water solubility (estimated) ([2]; provided by Bellicum Pharmaceuticals): 700 pM (≈ 0.988 ng/mL) |
| Nc1nc2c(ncn2COCCO)c(=O)[nH]1 [Acyclovir] | – | – | < 1200 | – | – |
| Cc1cc(C#N)cc(C)c1Oc1nc(Nc2ccc(C#N)cc2)nc(N)c1Br [Etravirine] | 16.9 µg/mL | 0 | < 1200 | – | – |
| O=C1CCc2ccc(OCCCCN3CCN(c4cccc(Cl)c4Cl)CC3)cc2N1 [Aripiprazole] | – | – | > 1200 | No | solubility (physchem; approximate concentration in ethanol at which completely solubilised): ~2200 µg/mL (≈ 4910 µM) |
| COc1ccc(Cl)cc1C(=O)NCCc1ccc(S(=O)(=O)NC(=O)NC2CCCCC2)cc1 [Glibenclamide] | – | – | < 1200 | – | – |
| O=C1[C@H](CC[C@H](O)c2ccc(F)cc2)[C@@H](c2ccc(O)cc2)N1c1ccc(F)cc1 [Ezetimibe] | 8.46 µg/mL | 0 | > 1200 | Yes | solubility in a mixture of DMSO and water (DMSO solubility testing; addition to a 50:50 DMSO:water mixture): remained in solution; solubility in DMSO (DMSO solubility testing; approx. 20 mg of API in 1 mL of DMSO): dissolved readily with gentle agitation; solubility at 2 min [5, 7]: 3.4 µg/mL (≈ 8.3 µM); Solubility in water (literature) [2]: 8.5 µg/mL (≈ 20.8 µM) |
| O=C1NC(=O)C(c2ccccc2)(c2ccccc2)N1 [Phenytoin] | 71.1 µg/mL | 0 | > 1200 | Yes | solubility at 2 min [5, 7]: 14.1 µg/mL (≈ 55.9 µM); Solubility in water (literature) [2]: 71.1 µg/mL (≈ 282 µM) |
| Cc1cccc(C)c1OCC(=O)N[C@@H](Cc1ccccc1)[C@@H](O)C[C@H](Cc1ccccc1)NC(=O)[C@H](C(C)C)N1CCCNC1=O [Lopinavir] | 1.92 µg/mL | – | > 1200 | Yes | solubility at 2 min [5]: 14.9 µg/mL (≈ 23.7 µM); Solubility in water (literature) [2]: 1.9 µg/mL (≈ 3.02 µM) |
| CC(C)c1nc(CN(C)C(=O)N[C@H](C(=O)N[C@@H](Cc2ccccc2)C[C@H](O)[C@H](Cc2ccccc2)NC(=O)OCc2cncs2)C(C)C)cs1 [Ritonavir] | – | 0 | – | – | – |
| CO[C@H]1C[C@@H]2CC[C@@H](C)[C@@](O)(O2)C(=O)C(=O)N2CCCC[C@H]2C(=O)O[C@H]([C@H](C)C[C@@H]2CC[C@@H](O)[C@H](OC)C2)CC(=O)[C@H](C)/C=C(\C)[C@@H](O)[C@@H](OC)C(=O)[C@H](C)C[C@H](C)/C=C/C=C/C=C/1C [Rapamycin (sirolimus), Rapamycin] | 1.73 µg/mL | – | – | – | – |
